This is an account of results in patent US4180564A, “A-38533 Antibiotics and process for production thereof” (Eli Lilly and Company, priority 1978, dated 1979).

≈ marks a conversion by molar mass, not a printed value.

In one experiment the test system is P. aeruginosa. The experiment in a line: In vivo antimicrobial activity, P. aeruginosa infection in mice. Particulars: Pseudomonas aeruginosa, sc. An excerpt:
The A-38533 antibiotics have shown in vivo antimicrobial activity against experimental bacterial infections. […] Bacteriol. 81, 233-235 (1961)]. The LD50 values in Table XI refer to the infecting challenge of the pathogen, the measure being the number by which the LD50 (ip) of the infecting organism is multiplied.

The test system of another experiment is Pseudomonas aeruginosa. The experiment in a line: In vitro activity, standard agar-dilution test (MIC). It is filed as cell-based. From the text: The A-38533 antibiotics inhibit the growth of certain gram-negative pathogenic organisms, particularly Pseudomonas species. The minimal inhibitory concentrations (MIC's) at which the A-38533 factors A1, A2, B and C inhibit various strains of Pseudomonas aeruginosa and Neisseria gonorrhea, as determined by standard agar-dilution tests, are summarized in Table X.

One may read the ED50 as the dose at which the effect has come halfway, by size or by number of responders. Usually MIC stands for the smallest concentration in the dilution series that meets the test's criterion for growth inhibition. Lower therefore signals inhibition by little substance. Take `CC1(C)S[C@@H]2[C@H](NC(=O)C(C(=O)O)c3ccccc3)C(=O)N2[C@H]1C(=O)O` (stereo partly drawn) [Carbenicillin]: the ED50 in the experiment with P. aeruginosa (Test A, P. aeruginosa X239, SC, ×3 doses, challenge 76 × LD50 (ip)) was 29.3 mg/kg; in the experiment on P. aeruginosa (Test B, P. aeruginosa 24J, ×3 doses, challenge 7.6 × LD50 (ip)), 31.9 mg/kg; in the experiment with P. aeruginosa (Test C, P. aeruginosa 24J, ×3 doses, challenge 21.5 × LD50 (ip)), 57.5 mg/kg. Besides, the MIC against Pseudomonas aeruginosa (strain 4276) is 128 µg/mL (≈ 338 µM); in the experiment with Pseudomonas aeruginosa (strain PA103), 32 µg/mL (≈ 84.6 µM); in the experiment on Pseudomonas aeruginosa (strain PI23), 32 µg/mL (≈ 84.6 µM); against Pseudomonas aeruginosa (strain PS9) it was 32 µg/mL (≈ 84.6 µM); in the experiment on Pseudomonas aeruginosa (strain PS15), 16 µg/mL (≈ 42.3 µM); against Pseudomonas aeruginosa (strain PS25), 64 µg/mL (≈ 169 µM). Also, the values for the MIC against Pseudomonas aeruginosa (strain X48), with Pseudomonas aeruginosa (strain X239) and against Pseudomonas aeruginosa (strain X528) were 16 µg/mL (≈ 42.3 µM), 32 µg/mL (≈ 84.6 µM) and 16 µg/mL (≈ 42.3 µM), respectively.

For `NC[C@H]1O[C@H](O[C@H]2[C@H](O)[C@@H](O[C@H]3O[C@H](CO)[C@@H](O)[C@H](N)[C@H]3O)[C@H](N)C[C@@H]2N)[C@H](N)C[C@@H]1O` [Tobramycin], the ED50 in the experiment with P. aeruginosa (Test A, P. aeruginosa X239, SC, ×2 doses, challenge 76 × LD50 (ip)) is 0.4 mg/kg; in the experiment with P. aeruginosa (Test B, P. aeruginosa 24J, ×2 doses, challenge 7.6 × LD50 (ip)) it was 0.4 mg/kg; in the experiment on P. aeruginosa (Test C, P. aeruginosa 24J, ×2 doses, challenge 21.5 × LD50 (ip)), 0.6 mg/kg.
